Experimental data from patent US5919771A, “Urea and thiourea derivatives of glycopeptides” (Eli Lilly and Company, priority 1998, dated 1999).

How the values were obtained:
Type in all cases: cell-based
[1] = system: Enterococcus faecium and faecalis (RESISTANT); conditions: geometric mean of 4-6 isolates
Description: (§1) The antibacterial efficacy of the present compounds is illustrated by Table II. The minimal inhibitory concentrations (MICs) were determined using a standard broth micro-dilution assay.

[2] = system: Enterococcus faecium and faecalis (SENSITIVE); conditions: geometric mean of 4-6 isolates
Description: as §1

[3] = system: Staphylococcus aureus 446; experiment: MIC, standard broth micro-dilution assay, SA 446
Description: as §1

[4] = system: Staphylococcus aureus 489; experiment: MIC, standard broth micro-dilution assay, SA 489
Description: as §1

[5] = system: Staphylococcus aureus 447; experiment: MIC, standard broth micro-dilution assay, SA 447
Description: as §1

[6] = system: Staphylococcus haemolyticus 105; experiment: MIC, standard broth micro-dilution assay, SH 105
Description: as §1

[7] = system: Staphylococcus haemolyticus 415; experiment: MIC, standard broth micro-dilution assay, SH 415
Description: as §1

[8] = system: Staphylococcus epidermidis 270; experiment: MIC, standard broth micro-dilution assay, SE 270
Description: as §1

[9] = system: Streptococcus pyogenes C203; experiment: MIC, standard broth micro-dilution assay, SPY C203
Description: as §1

[10] = system: Streptococcus pneumoniae P1; experiment: MIC, standard broth micro-dilution assay, SPN P1
Description: as §1

CC(C)C[C@H](C(=O)N[C@H]1C(=O)N[C@@H](CC(N)=O)C(=O)N[C@H]2C(=O)N[C@H]3C(=O)N[C@H](C(=O)N[C@H](C(=O)O)c4cc(O)cc(O)c4-c4cc3ccc4O)[C@H](O[C@H]3C[C@](C)(N)[C@@H](O)[C@H](C)O3)c3ccc(c(Cl)c3)Oc3cc2cc(c3O[C@@H]2O[C@H](CO)[C@@H](O)[C@H](O)[C@H]2O[C@H]2C[C@](C)(NCc3ccc(Oc4ccccc4)cc3)[C@@H](O)[C@H](C)O2)Oc2ccc(cc2Cl)[C@H]1O)N(C)C(=S)Nc1ccccc1 [Example 3, N^LEU -(PHENYLTHIOCARBAMOYL)-N^DISACC -(p-PHENOXYBENZYL)-A82846B]
Minimal Inhibitory Concentration (MIC) RESISTANT [1]: 16 | Minimal Inhibitory Concentration (MIC) SENSITIVE [2]: 1.7 | Minimal Inhibitory Concentration (MIC) SA 446 [3]: 4 | Minimal Inhibitory Concentration (MIC) SA 489 [4]: 2 | Minimal Inhibitory Concentration (MIC) SA 447 [5]: 1 | Minimal Inhibitory Concentration (MIC) SH 105 [6]: 2 | Minimal Inhibitory Concentration (MIC) SH 415 [7]: 2 | Minimal Inhibitory Concentration (MIC) SE 270 [8]: 1 | Minimal Inhibitory Concentration (MIC) SPY C203 [9]: ≤ .06

CC(C)CC(C(=O)NC1C(=O)NC(CC(N)=O)C(=O)NC2C(=O)NC3C(=O)NC(C(=O)NC(C(=O)O)c4cc(O)cc(O)c4-c4cc3ccc4O)C(OC3CC(C)(N)C(O)C(C)O3)c3ccc(c(Cl)c3)Oc3cc2cc(c3OC2OC(CO)C(O)C(O)C2OC2CC(C)(NCc3ccc(Oc4ccccc4)cc3)C(O)C(C)O2)Oc2ccc(cc2Cl)C1O)N(C)C(=S)Nc1cccc2ccccc12 (stereo not shown) [Example 7, N^LEU -(1-NAPHTHYLTHIOCARBAMOYL)-N^DISACC -(p-PHENOXYBENZYL)A82846B]
Minimal Inhibitory Concentration (MIC) RESISTANT [1]: 19 | Minimal Inhibitory Concentration (MIC) SENSITIVE [2]: 3 | Minimal Inhibitory Concentration (MIC) SA 446 [3]: 4 | Minimal Inhibitory Concentration (MIC) SA 489 [4]: 2 | Minimal Inhibitory Concentration (MIC) SA 447 [5]: 1 | Minimal Inhibitory Concentration (MIC) SH 105 [6]: 4 | Minimal Inhibitory Concentration (MIC) SH 415 [7]: 2 | Minimal Inhibitory Concentration (MIC) SE 270 [8]: 0.5 | Minimal Inhibitory Concentration (MIC) SPY C203 [9]: 0.25 | Minimal Inhibitory Concentration (MIC) SPN P1 [10]: ≤ 0.06

CCCCc1ccc(CNC2(C)CC(OC3C(Oc4c5cc6cc4Oc4ccc(cc4Cl)C(OC4CC(C)(N)C(O)C(C)O4)C4NC(=O)C(NC(=O)C6NC(=O)C(CC(N)=O)NC(=O)C(NC(=O)C(CC(C)C)N(C)C(=S)Nc6ccccc6)C(O)c6ccc(c(Cl)c6)O5)c5ccc(O)c(c5)-c5c(O)cc(O)cc5C(C(=O)O)NC4=O)OC(CO)C(O)C3O)OC(C)C2O)cc1 (stereo not shown) [Example 21, N^LEU -(PHENYLTHIOCARBAMOYL)-N^DISACC -(p-n-BUTYLBENZYL)-A82846B]
Minimal Inhibitory Concentration (MIC) RESISTANT [1]: 32 | Minimal Inhibitory Concentration (MIC) SENSITIVE [2]: 2.6

CC(C)CC(C(=O)NC1C(=O)NC(CC(N)=O)C(=O)NC2C(=O)NC3C(=O)NC(C(=O)NC(C(=O)O)c4cc(O)cc(O)c4-c4cc3ccc4O)C(OC3CC(C)(N)C(O)C(C)O3)c3ccc(c(Cl)c3)Oc3cc2cc(c3OC2OC(CO)C(O)C(O)C2OC2CC(C)(NCc3ccc(Cl)cc3)C(O)C(C)O2)Oc2ccc(cc2Cl)C1O)N(C)C(=S)Nc1cccc2ccccc12 (stereo not shown) [Example 6, N^LEU -(1-NAPHTHYLTHIOCARBAMOYL)-N^DISACC -(p-CHLOROBENZYL)A82846B]
Minimal Inhibitory Concentration (MIC) RESISTANT [1]: 128 | Minimal Inhibitory Concentration (MIC) SENSITIVE [2]: 5 | Minimal Inhibitory Concentration (MIC) SA 446 [3]: 2 | Minimal Inhibitory Concentration (MIC) SA 489 [4]: 16 | Minimal Inhibitory Concentration (MIC) SA 447 [5]: 4 | Minimal Inhibitory Concentration (MIC) SH 105 [6]: 4 | Minimal Inhibitory Concentration (MIC) SH 415 [7]: 8 | Minimal Inhibitory Concentration (MIC) SE 270 [8]: 64 | Minimal Inhibitory Concentration (MIC) SPY C203 [9]: ≤ 0.06 | Minimal Inhibitory Concentration (MIC) SPN P1 [10]: ≤ 0.06

CC(C)CC(C(=O)NC1C(=O)NC(CC(N)=O)C(=O)NC2C(=O)NC3C(=O)NC(C(=O)NC(C(=O)O)c4cc(O)cc(O)c4-c4cc3ccc4O)C(OC3CC(C)(N)C(O)C(C)O3)c3ccc(c(Cl)c3)Oc3cc2cc(c3OC2OC(CO)C(O)C(O)C2OC2CC(C)(NCc3ccc(Oc4ccccc4)cc3)C(O)C(C)O2)Oc2ccc(cc2Cl)C1O)N(C)C(=S)Nc1ccc(Cl)cc1 (stereo not shown) [Example 10, N^LEU -((p-CHLOROPHENYL)-THIOCARBAMOYL)-N^DISACC -(p-PHENOXYBENZYL)A82846B]
Minimal Inhibitory Concentration (MIC) RESISTANT [1]: 9.5 | Minimal Inhibitory Concentration (MIC) SENSITIVE [2]: 1.7 | Minimal Inhibitory Concentration (MIC) SA 446 [3]: 4 | Minimal Inhibitory Concentration (MIC) SA 489 [4]: 2 | Minimal Inhibitory Concentration (MIC) SA 447 [5]: 2 | Minimal Inhibitory Concentration (MIC) SH 105 [6]: 1 | Minimal Inhibitory Concentration (MIC) SH 415 [7]: 2 | Minimal Inhibitory Concentration (MIC) SE 270 [8]: 2

COc1ccc(NC(=S)N(C)C(CC(C)C)C(=O)NC2C(=O)NC(CC(N)=O)C(=O)NC3C(=O)NC4C(=O)NC(C(=O)NC(C(=O)O)c5cc(O)cc(O)c5-c5cc4ccc5O)C(OC4CC(C)(N)C(O)C(C)O4)c4ccc(c(Cl)c4)Oc4cc3cc(c4OC3OC(CO)C(O)C(O)C3OC3CC(C)(NCc4ccc(Oc5ccccc5)cc4)C(O)C(C)O3)Oc3ccc(cc3Cl)C2O)cc1 (stereo not shown) [Example 11, N^LEU -((p-METHOXYPHENYL)-THIOCARBAMOYL)-N^DISACC -(p-PHENOXYBENZYL)A82846B]
Minimal Inhibitory Concentration (MIC) RESISTANT [1]: 38 | Minimal Inhibitory Concentration (MIC) SENSITIVE [2]: 2.6 | Minimal Inhibitory Concentration (MIC) SA 446 [3]: 4 | Minimal Inhibitory Concentration (MIC) SA 489 [4]: 2 | Minimal Inhibitory Concentration (MIC) SA 447 [5]: 2 | Minimal Inhibitory Concentration (MIC) SH 105 [6]: 1 | Minimal Inhibitory Concentration (MIC) SH 415 [7]: 2 | Minimal Inhibitory Concentration (MIC) SE 270 [8]: 2

CC(C)CC(C(=O)NC1C(=O)NC(CC(N)=O)C(=O)NC2C(=O)NC3C(=O)NC(C(=O)NC(C(=O)O)c4cc(O)cc(O)c4-c4cc3ccc4O)C(OC3CC(C)(N)C(O)C(C)O3)c3ccc(c(Cl)c3)Oc3cc2cc(c3OC2OC(CO)C(O)C(O)C2OC2CC(C)(NCc3ccc(Oc4ccccc4)cc3)C(O)C(C)O2)Oc2ccc(cc2Cl)C1O)N(C)C(=O)Nc1ccccc1 (stereo not shown) [Example 24, N^LEU -(PHENYLCARBAMOYL)-N^DISACC -(p-PHENOXYBENZYL)A82846B]
Minimal Inhibitory Concentration (MIC) RESISTANT [1]: 16 | Minimal Inhibitory Concentration (MIC) SENSITIVE [2]: 0.87 | Minimal Inhibitory Concentration (MIC) SA 446 [3]: 2 | Minimal Inhibitory Concentration (MIC) SA 489 [4]: 1 | Minimal Inhibitory Concentration (MIC) SA 447 [5]: 1 | Minimal Inhibitory Concentration (MIC) SH 105 [6]: 0.25 | Minimal Inhibitory Concentration (MIC) SH 415 [7]: 1 | Minimal Inhibitory Concentration (MIC) SE 270 [8]: 1

CC(C)CC(C(=O)NC1C(=O)NC(CC(N)=O)C(=O)NC2C(=O)NC3C(=O)NC(C(=O)NC(C(=O)O)c4cc(O)cc(O)c4-c4cc3ccc4O)C(OC3CC(C)(N)C(O)C(C)O3)c3ccc(c(Cl)c3)Oc3cc2cc(c3OC2OC(CO)C(O)C(O)C2OC2CC(C)(N)C(O)C(C)O2)Oc2ccc(cc2Cl)C1O)N(C)C(=S)Nc1ccc(Cl)cc1 (stereo not shown) [Example 8, N^LEU -((p-CHLOROPHENYL)-THIOCARBAMOYL)A82846B]
Minimal Inhibitory Concentration (MIC) RESISTANT [1]: > 128 | Minimal Inhibitory Concentration (MIC) SENSITIVE [2]: 8 | Minimal Inhibitory Concentration (MIC) SA 446 [3]: 2 | Minimal Inhibitory Concentration (MIC) SA 489 [4]: 2 | Minimal Inhibitory Concentration (MIC) SA 447 [5]: 4 | Minimal Inhibitory Concentration (MIC) SH 105 [6]: 16 | Minimal Inhibitory Concentration (MIC) SH 415 [7]: 64 | Minimal Inhibitory Concentration (MIC) SE 270 [8]: 8

CC(C)CC(C(=O)NC1C(=O)NC(CC(N)=O)C(=O)NC2C(=O)NC3C(=O)NC(C(=O)NC(C(=O)O)c4cc(O)cc(O)c4-c4cc3ccc4O)C(OC3CC(C)(N)C(O)C(C)O3)c3ccc(c(Cl)c3)Oc3cc2cc(c3OC2OC(CO)C(O)C(O)C2OC2CC(C)(N)C(O)C(C)O2)Oc2ccc(cc2Cl)C1O)N(C)C(=O)Nc1ccccc1 (stereo not shown) [Example 23, N^LEU -(PHENYLCARBAMOYL)A82846B]
Minimal Inhibitory Concentration (MIC) RESISTANT [1]: > 128 | Minimal Inhibitory Concentration (MIC) SENSITIVE [2]: 5.3 | Minimal Inhibitory Concentration (MIC) SA 446 [3]: 4 | Minimal Inhibitory Concentration (MIC) SA 489 [4]: 1 | Minimal Inhibitory Concentration (MIC) SA 447 [5]: 4 | Minimal Inhibitory Concentration (MIC) SH 105 [6]: 0.5 | Minimal Inhibitory Concentration (MIC) SH 415 [7]: 64 | Minimal Inhibitory Concentration (MIC) SE 270 [8]: 4

COc1ccc(NC(=S)N(C)C(CC(C)C)C(=O)NC2C(=O)NC(CC(N)=O)C(=O)NC3C(=O)NC4C(=O)NC(C(=O)NC(C(=O)O)c5cc(O)cc(O)c5-c5cc4ccc5O)C(OC4CC(C)(N)C(O)C(C)O4)c4ccc(c(Cl)c4)Oc4cc3cc(c4OC3OC(CO)C(O)C(O)C3OC3CC(C)(N)C(O)C(C)O3)Oc3ccc(cc3Cl)C2O)cc1 (stereo not shown) [Example 9, N^LEU -((p-METHOXYPHENYL)-THIOCARBAMOYL)A82846B]
Minimal Inhibitory Concentration (MIC) RESISTANT [1]: > 128 | Minimal Inhibitory Concentration (MIC) SENSITIVE [2]: 21 | Minimal Inhibitory Concentration (MIC) SA 446 [3]: 8 | Minimal Inhibitory Concentration (MIC) SA 489 [4]: 4 | Minimal Inhibitory Concentration (MIC) SA 447 [5]: 8 | Minimal Inhibitory Concentration (MIC) SH 105 [6]: 32 | Minimal Inhibitory Concentration (MIC) SH 415 [7]: 32 | Minimal Inhibitory Concentration (MIC) SE 270 [8]: 16
